Source: patent US6866861B1, “Method and composition for enhancing milk component concentrations” (Land O'Lakes, Inc., priority 1999, dated 2005)

Tested on: cows
Assay: Abomasal infusion of xylitol in cows, milk component concentrations (Example 1)
Assay type: in vivo, cow
Procedure: To determine the weight percent total solids, wet basis, in a sample, the actual weight of total solids is determined by analyzing the sample in accordance with Method #925.23 (33.2.09) of Official Methods of Analysis, Association of Official Analytical Chemists (AOAC) (16th Ed., 1995). The weight percent total solids, wet basis, is then calculated by dividing the actual weight of total solids by the actual weight of the sample. The weight percent of true protein, wet basis, for a particular sample is calculated after first determining the wet basis weight percent of total Kjeldahl nitrogen and the wet basis weight percent of non-protein nitrogen in the sample. The wet basis weight percent of total Kjeldahl nitrogen in the sample is determined using the method referenced above. The wet basis weight percent of non-protein nitrogen (NPN) in the sample is determined in accordance with Method #991.21 (33.2.12) of Official Methods of Analysis, Association of Official Analytical Chemists (AOAC) (16th Ed., 1995). The weight percent of true protein, wet basis, in the sample is then determined by subtracting the wet basis weight percent of non-protein nitrogen in the sample from the wet basis weight percent of total Kjeldahl nitrogen in the sample. To determine the weight percent lactose, wet basis, in a liquid sample, the weight of the liquid sample is first determined. The actual weight of lactose in the liquid sample may then be determined using analysis kit number 176-303, that is available from Boehringer-Mannheim of Indianapolis, Ind. in accordance with the procedural instructions included with analysis kit number 176-303. The weight percent lactose, wet basis, in the liquid sample is then calculated by dividing the actual weight of lactose in the liquid sample by the actual weight of the liquid sample. To determine the weight percent fat, wet basis, in a sample, the actual weight of fat in the sample is determined in accordance with Method #974.09 (33.7.18) of Official Methods of Analysis, Association of Official Analytical Chemists (AOAC) (16th Ed., 1995). The weight percent fat, wet basis, is then calculated by dividing the actual weight of fat in the sample by the actual weight of the sample. In this example, xylitol was abomasally infused into three different cows at a rate of 100 grams per cow per day during a 14 day test period. The rations provided to the cows during the period extending from day 0, prior to abomasal infusion of xylitol, through day 14 of the test period were the same. The only difference in feeding of the cows between day 0 and days 1-14 of the test period were that during days 1-14 the cows were abomasally infused with the dosage of 100 grams of xylitol per cow per day. The xylitol rations were mixed with water in the ratio of 150 grams of water per 100 grams of xylitol to facilitate infusion. Milk from the three cows was collected and analyzed prior to infusion (on day 0) and also was collected and analyzed on the third, seventh and fourteenth day of the test period. The results presented in Table 1 below for each milk component are averages for the milk collected from the three different cows on day 0 and a mean of the day 3, 7, and 14 concentration values, averaged over all of the test cows, for each particular milk component.

[1] = milk, mean of days 3, 7, 14 minus day 0, 100 g/cow/day abomasal
[2] = milk, mean of days 3, 7 and 14, 100 g/cow/day abomasal infusion, average of 3 cows

In the case of `OC[C@@H](O)[C@H](O)[C@@H](O)CO` [xylitol], the “weight percent of fat, true protein, lactose, and total solids in the milk (conclusion in words)” value (abomasal infusion, 14 day test period) is reported as “net increase”, the “Fat, Difference (mean − day 0)” value [1] is reported as “+0.31 Wt %” and the “Lactose, Difference (mean − day 0)” value [1] is reported as “+0.01 Wt. %”. For the same compound, the “Total Solids, Difference (mean − day 0)” value [1] was “+0.39 Wt. %”, the “True Protein, Difference (mean − day 0)” value [1] was “+0.10 Wt. %” and the Fat [2] was 3.63 Wt %. For the same compound, the Lactose [2] was 4.66 Wt. %, the “Total Solids” value [2] was 11.82 Wt. % and the “True Protein” value [2] was 2.86 Wt. %.
